{
  "source": "patent US10835840B2",
  "about": "“Methods for in situ separation of mixtures” (INTERNATIONAL SCIENTIFIC PTY LTD, priority 2015, dated 2020)",
  "key": {"[1]": {"assay": "Tape stripping after applying niacinamide gel mixture with or without weak magnetic field (ETP008), mass spectrometry", "assay_type": "in vivo", "parameters": "unit not given here", "excerpt": "ETP008—a linear array of displaced dipolar magnetic elements comprising strontium oxides dispersed in a PVC film base. The displaced dipolar magnetic elements were created in parallel with a pole flux of 450 Gauss. Each element or pole was 2.7 mm wide, creating a pair of displaced dipolar magnetic elements of pitch of 1.5 pairs per centimetre. Inter-pair flux gradient was 900 Gauss or 1350 Gauss per centimetre.\nAn aliquot of the niacinamide mixture was applied to both regions without rubbing. A magnetic film (ETP008) was placed in close proximity (approximately 0.5 mm) above the Active region for 5 minutes.\nThe Tape strip samples were then analysed for niacinamide using a validated mass spectrometry method."}, "[2]": {"details": "in vivo", "procedure": "The subject's volar forearm or upper arm was delineated into two 3×3 cm square regions which were designated […]. […] After an absorption period of 30 minutes, the excess mixture was removed from each region by washing with water. The region was then tape stripped using the adapted procedure of Lademann et al (The tape stripping procedure—evaluation of some critical parameters. European Journal of Pharmaceutics and Biopharmaceutics 72 (2009) 317-323)."}, "[3]": {"details": "Active, Total (6-10) tape strips"}, "[4]": {"details": "Passive, Total (6-10) tape strips"}},
  "note": "“And” between values parts separate entries of the source, which are not always exact repeats. Equal entries are not always repeated.",
  "data": [
    {"compound": "NC(=O)c1cccnc1", "note": "[Niacinamide]", "values": [
      {"measurement": "Niacinamide penetration, Average", "setting": "[1]; Active (weak magnetic field, ETP008), Tape Strip 1", "value": 2.907},
      {"measurement": "Niacinamide penetration, individual columns 1-6", "setting": "[1]; Active (weak magnetic field, ETP008, 5 minutes), Tape Strip 1, gel mixture, 30 minutes absorption", "value": "4.463 and 1.099 and 1.021 and 3.47 and 2.739 and 4.647"},
      {"measurement": "Niacinamide penetration, Average", "setting": "[1]; Active, Tape Strip 2", "value": 2.036},
      {"measurement": "Niacinamide penetration, individual columns 1-6", "setting": "[1]; Active, Tape Strip 2", "value": "1.782 and 0.5649 and 1.07 and 1.211 and 2.226 and 5.364"},
      {"measurement": "Niacinamide penetration, Average", "setting": "[1]; Active, Tape Strip 3", "value": 1.12},
      {"measurement": "Niacinamide penetration, individual columns 1-6", "setting": "[1]; Active, Tape Strip 3", "value": "1.137 and 0.5147 and 1.116 and 1.035 and 1.694 and 1.226"},
      {"measurement": "Niacinamide penetration, Average", "setting": "[1]; Active, Tape Strip 4", "value": 0.8796},
      {"measurement": "Niacinamide penetration, individual columns 1-6", "setting": "[1]; Active, Tape Strip 4", "value": "0.9888 and 0.7087 and 1.098 and 0.8548 and 0.8425 and 0.7848"},
      {"measurement": "Niacinamide penetration, Average", "setting": "[1]; Active, Tape Strip 5", "value": 0.8556},
      {"measurement": "Niacinamide penetration, individual columns 1-6", "setting": "[1]; Active, Tape Strip 5", "value": "0.9146 and 0.7814 and 0.7495 and 0.8808 and 1.167 and 0.6402"},
      {"measurement": "Niacinamide penetration, Average", "setting": "[1]; Active, Tape Strip 6", "value": 0.7575},
      {"measurement": "Niacinamide penetration, individual columns 1-6", "setting": "[1]; Active, Tape Strip 6", "value": "0.895 and 0.8145 and 0.5287 and 0.8757 and 0.7531 and 0.6777"},
      {"measurement": "Niacinamide penetration, Average", "setting": "[1]; Active, Tape Strip 7", "value": 0.6674},
      {"measurement": "Niacinamide penetration, individual columns 1-6", "setting": "[1]; Active, Tape Strip 7", "value": "0.6261 and 0.5502 and 0.4859 and 0.6321 and 0.6608 and 1.049"},
      {"measurement": "Niacinamide penetration, Average", "setting": "[1]; Active, Tape Strip 8", "value": 0.5672},
      {"measurement": "Niacinamide penetration, individual columns 1-6", "setting": "[1]; Active, Tape Strip 8", "value": "0.4149 and 0.7107 and 0.4741 and 0.5541 and 0.5753 and 0.6739"},
      {"measurement": "Niacinamide penetration, Average", "setting": "[1]; Active, Tape Strip 9", "value": 0.4439},
      {"measurement": "Niacinamide penetration, individual columns 1-6", "setting": "[1]; Active, Tape Strip 9", "value": "0.4666 and 0.5396 and 0.4059 and 0.4627 and 0.4898 and 0.2985"},
      {"measurement": "Niacinamide penetration, Average", "setting": "[1]; Active, Tape Strip 10", "value": 0.3798},
      {"measurement": "Niacinamide penetration, individual columns 1-6", "setting": "[1]; Active, Tape Strip 10", "value": "0.4229 and 0.3982 and 0.3809 and 0.2336 and 0.5187 and 0.3243"},
      {"measurement": "Niacinamide penetration, Average", "setting": "[1]; [3]", "value": 2.816},
      {"measurement": "Niacinamide penetration, individual columns 1-6", "setting": "[1]; [3]", "value": "2.826 and 3.013 and 2.276 and 2.758 and 2.998 and 3.024"},
      {"measurement": "Niacinamide penetration, Average", "setting": "[1]; Passive (no weak magnetic field), Tape Strip 1", "value": 2.428},
      {"measurement": "Niacinamide penetration, individual columns 1-6", "setting": "[1]; Passive (no weak magnetic field), Tape Strip 1, gel mixture, 30 minutes absorption", "value": "4.785 and 1.997 and 0.8068 and 3.16 and 2.0563 and 1.761"},
      {"measurement": "Niacinamide penetration, Average", "setting": "[1]; Passive, Tape Strip 2", "value": 1.353},
      {"measurement": "Niacinamide penetration, individual columns 1-6", "setting": "[1]; Passive, Tape Strip 2", "value": "1.077 and 0.9778 and 1.464 and 0.9842 and 1.846 and 1.768"},
      {"measurement": "Niacinamide penetration, Average", "setting": "[1]; Passive, Tape Strip 3", "value": 1.193},
      {"measurement": "Niacinamide penetration, individual columns 1-6", "setting": "[1]; Passive, Tape Strip 3", "value": "0.6071 and 0.8166 and 1.131 and 1.06 and 1.456 and 2.085"},
      {"measurement": "Niacinamide penetration, Average", "setting": "[1]; Passive, Tape Strip 4", "value": 0.9603},
      {"measurement": "Niacinamide penetration, individual columns 1-6", "setting": "[1]; Passive, Tape Strip 4", "value": "0.4947 and 1.297 and 0.8954 and 0.5456 and 0.8406 and 1.689"},
      {"measurement": "Niacinamide penetration, Average", "setting": "[1]; Passive, Tape Strip 5", "value": 0.8282},
      {"measurement": "Niacinamide penetration, individual columns 1-6", "setting": "[1]; Passive, Tape Strip 5", "value": "0.5925 and 0.8516 and 0.935 and 0.6655 and 0.6213 and 1.303"},
      {"measurement": "Niacinamide penetration, Average", "setting": "[1]; Passive, Tape Strip 6", "value": 0.6176},
      {"measurement": "Niacinamide penetration, individual columns 1-6", "setting": "[1]; Passive, Tape Strip 6", "value": "0.5736 and 0.5759 and 0.7258 and 0.5432 and 0.6385 and 0.6487"},
      {"measurement": "Niacinamide penetration, Average", "setting": "[1]; Passive, Tape Strip 7", "value": 0.6112},
      {"measurement": "Niacinamide penetration, individual columns 1-6", "setting": "[1]; Passive, Tape Strip 7", "value": "0.5936 and 0.4867 and 0.5056 and 0.622 and 0.5467 and 0.9127"},
      {"measurement": "Niacinamide penetration, Average", "setting": "[1]; Passive, Tape Strip 8", "value": 0.4614},
      {"measurement": "Niacinamide penetration, individual columns 1-6", "setting": "[1]; Passive, Tape Strip 8", "value": "0.5657 and 0.4006 and 0.4313 and 0.3634 and 0.4878 and 0.5195"},
      {"measurement": "Niacinamide penetration, Average", "setting": "[1]; Passive, Tape Strip 9", "value": 0.3664},
      {"measurement": "Niacinamide penetration, individual columns 1-6", "setting": "[1]; Passive, Tape Strip 9", "value": "0.3146 and 0.4048 and 0.4168 and 0.4248 and 0.2422 and 0.3954"},
      {"measurement": "Niacinamide penetration, Average", "setting": "[1]; Passive, Tape Strip 10", "value": 0.3966},
      {"measurement": "Niacinamide penetration, individual columns 1-6", "setting": "[1]; Passive, Tape Strip 10", "value": "0.3563 and 0.5215 and 0.2107 and 0.4442 and 0.3186 and 0.5283"},
      {"measurement": "Niacinamide penetration, Average", "setting": "[1]; [4]", "value": 2.453},
      {"measurement": "Niacinamide penetration, individual columns 1-6", "setting": "[1]; [4]", "value": "2.404 and 2.39 and 2.29 and 2.398 and 2.234 and 3.005"}
    ]},
    {"compound": "Vitamin E", "values": [
      {"measurement": "Penetration of Vitamin E into the skin, in words", "setting": "[2]", "value": "much greater penetration"}
    ]}
  ]
}
